Patent US6908920B2, “Pyrimidine derivatives” (AstraZeneca AB, priority 2000, dated 2005)
pIC50: −log10 of the molar value.

Molecular target: T1, CDK2/Cyclin E (Homo sapiens, UniProt P24941)
T1 construct: made in house; host or cells: Sf21 (Spodoptera frugiperda) insect cells, baculovirus co-infection, for CDK2/cyclin E. E. coli BL21 (DE3) pLysS for the GST-Rb substrate
Assay: in vitro kinase assay, Scintillation Proximity Assay, incorporation of [γ-33-P]-ATP into GST-Rb
Type: biochemical
Details: in-vitro SPA kinase assay, GST-Rb substrate, read-out: CDK2 inhibitory activity IC50
Description: The compounds were tested in an in vitro kinase assay in 96 well format using Scintillation Proximity Assay (SPA—obtained from Amersham) for measuring incorporation of [γ-33-P]-Adenosine Triphosphate into a test substrate (GST-Retinoblastoma protein; GST-Rb). In each well was placed the compound to be tested (diluted in DMSO and water to correct concentrations) and in control wells either roscovitine as an inhibitor control or DMSO as a positive control. […]
The plates were sealed with Topseal-S plate sealers, left for two hours then spun at 2500 rpm, 1124×g., for 5 minutes. The plates were read on a Topcount for 30 seconds per well. […]
E. coli paste was resuspended in 10 ml/g of NETN buffer (50 mM Tris pH 7.5, 120 mM NaCl, 1 mM EDTA, 0.5% v/v NP-40, 1 mM PMSF, 1 ug/mnl leupeptin, 1 ug/ml aprotinin and 1 ug/ml pepstatin) and sonicated for 2×45 seconds per 100 ml homogenate. […] The final product was analysed by Sodium Dodeca Sulfate (SDS) PAGE (Polyacrylamide gel) using 8-16% Tris-Glycine gels (Novex, San Diego, USA).
The open reading frames of CDK2 and Cyclin E were isolated by reverse transcriptase-PCR using HeLa cell and activated T cell mRNA as a template and cloned into the insect expression vector pVL1393 (obtained from Invitrogen 1995 catalogue number: V1392-20). […]

pIC50: 6.83
Compound: CC(C)NCCCNS(=O)(=O)c1ccc(Nc2ncc(C#N)c(N3CCOCC3)n2)cc1 [Example 1, 5-Cyano-4-morpholino-2-{4-[N-(3-isopropylaminopropyl)sulphamoyl]anilino}pyrimidine]
